Test results as given in patent US20250154197A1, “LIPOLYTIC PEPTIDES” (FUNDACIÓ HOSPITAL UNIVERSITARI VALL D'HEBRON - INSTITUT DE …, priority 2021, published 2025).
Where no end group is shown, it is not given here. [ ]: non-standard residue; d: D form.

Experiments:
Format in all cases: cell-based
3T3-L1 mouse adipocytes = test: Lipolytic activity: glycerol release in differentiated 3T3-L1 mouse adipocytes (12 h); conditions: for Lipolysis Activity measured as Glycerol (μM) release in media: 3T3-L1 mouse adipocytes, 12 h
Experimental: JCRB9014-A) from Tebu-Bio (Tebu-bio, Barcelona, Spain). Briefly, mouse adipocytes (3T3-L1 cells) were cultured in 48 well plates as described previously (Saez-Lopez et al., 2020). Adipocytes were differentiated using cell culture reagents purchased from Tebu-Bio and following the manufacturer's instructions. At day of differentiation cells were treated in duplicates with vehicle (DMSO), Caffeine (100 μg/ml), and each of the peptides at the specified doses in Table 6a below. At the end of the experiment (12 h), supernatants were collected and glycerol content was measured using a Glycerol Assay Kit (Sigma) following manufacturer's instructions.

[1] = tested on: differentiated human subcutaneous adipocytes; test: Time course lipolytic activity: glycerol release at 120' and 240'; conditions: for Lipolytic activity measured as glycerol release: 10 ug/ml, human subcutaneous adipocytes
Experimental: At the end of the experiment, supernatants were collected and glycerol content was measured using a Lipolysis Assay kit from Tebu-bio (LIP-1—NC) following the manufacturer's instructions.

[2] = tested on: human subcutaneoous mature adipocytes; test: Lipolytic activity: glycerol release in human adipocytes (Lipolysis Assay kit); conditions: 100 μg/ml; human subcutaneous mature adipocytes

| Compound | Lipolysis Activity measured as Glycerol (μM) release in media (3T3-L1 mouse adipocytes; 1 μg/ml) [µM] | Lipolysis Activity measured as Glycerol (μM) release in media (3T3-L1 mouse adipocytes; 10 μg/ml) [µM] | Lipolysis Activity measured as Glycerol (μM) release in media (3T3-L1 mouse adipocytes; 100 μg/ml) [µM] | increase in lipolytic activity compared to the L version (3T3-L1 mouse adipocytes; D-decapeptide vs L version (SEQ ID NO: 2)) | Lipolytic activity measured as glycerol release ([1]; 120 min, listed as SEQ ID NO: 3) [UM] | Lipolytic activity measured as glycerol release ([1]; 240 min, listed as SEQ ID NO: 3) [UM] | fold more efficient in inducing lipolysis vs caffeine or SEQ ID NO:2 ([1]; time 120', 10 μg/ml) | fold more efficient in inducing lipolysis vs caffeine or SEQ ID NO:2 ([1]; time 240', 10 μg/ml) | Lipolysis Activity measured as Glycerol (μM) release in media [2] [µM] | lipolytic activity at 120' ([1]; 120', 10 μg/ml) | Lipolytic activity measured as glycerol release ([1]; 120 min) [UM] | Lipolytic activity measured as glycerol release ([1]; 240 min) [UM] |
| --- | --- | --- | --- | --- | --- | --- | --- | --- | --- | --- | --- | --- |
| TWDPEGVIFY [GP3D] ([dT][dW][dD][dP][dE]G[dV][dI][dF][dY]) [N-term NH2, C-term COOH] | 538 | 574 | 580 | about 2 fold | 24.8964 | 90.1603 | more than 24 fold | more than 5 fold |  |  |  |  |
| Cn1c(=O)c2c(ncn2C)n(C)c1=O [Caffeine] |  |  | 297 |  |  |  |  |  | 35.53 | neither caffeine nor the comparative peptide, at the same dose, provided any significant activity at that time | −3.0856 | 17.1602 |
